This note sets out measurements from US8404708B2, “Dual NK1/NK3 receptor antagonists” (Hoffmann-La Roche Inc., priority 2004, dated 2013).

Assay [1] concerns the target T1, Recombinant human NK3 (hNK3) receptor (Homo sapiens, UniProt P29371).
T1 construct: expressed in transfected cells
T1 sequence (P29371 1-465): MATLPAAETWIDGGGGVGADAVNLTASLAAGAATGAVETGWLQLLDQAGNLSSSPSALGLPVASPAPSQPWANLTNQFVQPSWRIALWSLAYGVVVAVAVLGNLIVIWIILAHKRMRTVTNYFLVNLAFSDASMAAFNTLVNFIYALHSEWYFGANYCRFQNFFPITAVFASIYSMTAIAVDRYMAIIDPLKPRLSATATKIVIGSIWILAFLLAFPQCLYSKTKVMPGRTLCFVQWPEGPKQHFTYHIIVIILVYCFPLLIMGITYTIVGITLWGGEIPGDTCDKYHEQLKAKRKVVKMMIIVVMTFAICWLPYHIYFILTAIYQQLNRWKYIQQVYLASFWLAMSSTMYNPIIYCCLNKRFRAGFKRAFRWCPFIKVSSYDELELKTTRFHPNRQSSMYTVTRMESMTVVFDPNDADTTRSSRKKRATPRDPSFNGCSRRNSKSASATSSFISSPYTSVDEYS
Description: NK3 receptor binding, [3H]SR142801 displacement, membrane preparations. The protocol: Non specific binding was determined using 10 μM SB222200. Assay buffer consisted of Tris-HCl (50 mM, pH 7.4), BSA (0.1%), MnCl2 (4 mM) and phosphoramidon (1 μM). Membrane preparations of hNK3 receptors (approximately 2.5 μg/well in a 96 well plate) were used to initiate the incubation for 90 min at room temperature. This assay was terminated by rapid filtration under vacuum through GF/C filters, presoaked for 90 min with PEI (0.3%), with 3×0.5 ml washes of ice-cold Tris buffer (50 mM, pH 7.4) containing 0.1% BSA. The radioactivity retained on the filters was measured by scintillation counting. All assays were performed in duplicate in at least two separate experiments.

Another assay addresses human NK1 receptor (Homo sapiens, UniProt P25103). Description: NK1 receptor binding, [3H]substance P displacement, CHO cell membranes. The following applies: first value of the cell pKi NK1/NK3; human NK1 receptor, [3H]substance P.
[2] abbreviates: second value of the cell pKi NK1/NK3, hNK3 receptor, [3H]SR142801.
The mark [3] stands for this setting: second value of the cell NK1/NK3, read-out: pKi NK3 (converted).

Like-named read-outs stand apart in the source and are kept apart here.

Sequence of human NK1 receptor (P25103 whole entry): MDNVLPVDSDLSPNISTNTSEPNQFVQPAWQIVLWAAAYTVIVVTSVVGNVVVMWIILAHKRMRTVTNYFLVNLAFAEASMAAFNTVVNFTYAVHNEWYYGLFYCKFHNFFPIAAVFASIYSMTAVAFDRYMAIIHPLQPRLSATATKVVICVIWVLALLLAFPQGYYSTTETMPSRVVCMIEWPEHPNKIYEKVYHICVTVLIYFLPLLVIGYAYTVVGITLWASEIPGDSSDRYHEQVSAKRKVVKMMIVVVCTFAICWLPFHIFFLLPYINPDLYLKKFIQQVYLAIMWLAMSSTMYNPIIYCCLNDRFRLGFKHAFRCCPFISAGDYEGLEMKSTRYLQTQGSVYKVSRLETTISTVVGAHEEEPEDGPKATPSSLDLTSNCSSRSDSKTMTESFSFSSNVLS

As to `CCN(C(C)=O)C1CCN(c2cc(-c3ccccc3Cl)c(N(C)C(=O)C(C)(C)c3cc(C(F)(F)F)cc(C(F)(F)F)c3)cn2)C1` (racemic) [Example 45, (RS)-N-[6-[3-(Acetyl-ethyl-amino)-pyrrolidin-1-yl]-4-(2-chloro-phenyl)-pyridin-3-yl]-2-(3,5-bis-trifluoromethyl-phenyl)-N-methyl-isobutyramide], the Ki in assay [1] (setting [2]) is 2 nM; at human NK1 receptor, 2.29 nM. Consider `CN(C(=O)C(C)(C)c1cc(C(F)(F)F)cc(C(F)(F)F)c1)c1cnc(N2CCCC(O)C2)cc1-c1ccccc1Cl` (racemic) [Example 50, (RS)-2-(3,5-Bis-trifluoromethyl-phenyl)-N-[4′-(2-chloro-phenyl)-3-hydroxy-3,4,5,6-tetrahydro-2H-[1,2′]bipyridinyl-5′-yl]-N-methyl-isobutyramide], for which the Ki in assay [1] (setting [2]) is 14.5 nM; on human NK1 receptor, 1.41 nM.

Regarding `CN(C(=O)C(C)(C)c1cc(C(F)(F)F)cc(C(F)(F)F)c1)c1cnc(N2CCCCC2CCO)cc1-c1ccccc1Cl` (racemic) [Example 53, (RS)-2-(3,5-Bis-trifluoromethyl-phenyl)-N-[4′-(2-chloro-phenyl)-2-(2-hydroxy-ethyl)-3,4,5,6-tetrahydro-2H-[1,2′]bipyridinyl-5′-yl]-N-methyl-isobutyramide], the Ki was 24.5 nM in assay [1] (setting [2]) and 2.51 nM at human NK1 receptor. Regarding `CN(CC(O)CO)c1cc(-c2ccccc2Cl)c(N(C)C(=O)C(C)(C)c2cc(C(F)(F)F)cc(C(F)(F)F)c2)cn1` (racemic) [Example 58, (RS)-2-(3,5-Bis-trifluoromethyl-phenyl)-N-{4-(2-chloro-phenyl)-6-[(2,3-dihydroxy-propyl)-methyl-amino]-pyridin-3-yl}-N-methyl-isobutyramide], the Ki is 5.75 nM in assay [1] (setting [2]) and 2.4 nM at human NK1 receptor. The matching figures for `CN(C(=O)C(C)(C)c1cc(C(F)(F)F)cc(C(F)(F)F)c1)c1cnc(N2CCC(S(C)(=O)=O)C2)cc1-c1ccccc1Cl` (racemic) [Example 66, (RS)-2-(3,5-Bis-trifluoromethyl-phenyl)-N-[4-(2-chloro-phenyl)-6-(3-methanesulfonyl-pyrrolidin-1-yl)-pyridin-3-yl]-N-methyl-isobutyramide]: 1.29 nM and 1.48 nM. The like results for `CC(O)CNc1cc(-c2ccccc2Cl)c(N(C)C(=O)C(C)(C)c2cc(C(F)(F)F)cc(C(F)(F)F)c2)cn1` (racemic) [Example 74, (RS)-2-(3,5-Bis-trifluoromethyl-phenyl)-N-[4-(2-chloro-phenyl)-6-(2-hydroxy-propylamino)-pyridin-3-yl]-N-methyl-isobutyramide] were, in that order, 5.75 nM and 0.871 nM. The matching figures for `CN(C(=O)C(C)(C)c1cc(C(F)(F)F)cc(C(F)(F)F)c1)c1cnc(NCC(O)CO)cc1-c1ccccc1Cl` (racemic) [Example 78, (RS)-2-(3,5-Bis-trifluoromethyl-phenyl)-N-[4-(2-chloro-phenyl)-6-(2,3-dihydroxy-propylamino)-pyridin-3-yl]-N-methyl-isobutyramide]: 6.17 nM and 2.82 nM. For `Cc1cc(F)ccc1-c1cc(N2CCC(O)C2)ncc1N(C)C(=O)C(C)(C)c1cc(C(F)(F)F)cc(C(F)(F)F)c1` (racemic) [Example 110, (RS)-2-(3,5-Bis-trifluoromethyl-phenyl)-N-[4-(4-fluoro-2-methyl-phenyl)-6-(3-hydroxy-pyrrolidin-1-yl)-pyridin-3-yl]-N-methyl-isobutyramide], the Ki in assay [1] (setting [2]) is 13.8 nM; at human NK1 receptor, 2.63 nM. For the compound `CN(C(=O)C(C)(C)c1cc(C(F)(F)F)cc(C(F)(F)F)c1)c1cnc(N2CCCCC2CO)cc1-c1ccccc1Cl` (racemic) [Example 141, (RS)-2-(3,5-Bis-trifluoromethyl-phenyl)-N-[4′-(2-chloro-phenyl)-2-hydroxymethyl-3,4,5,6-tetrahydro-2H-[1,2′]bipyridinyl-5′-yl]-N-methyl-isobutyramide], the Ki in assay [1] (setting [2]) is 18.6 nM; at human NK1 receptor it was 6.46 nM.

As to `CN(C(=O)C(C)(C)c1cc(C(F)(F)F)cc(C(F)(F)F)c1)c1cnc(N[C@@H]2CCCC[C@H]2O)cc1-c1ccccc1Cl` (racemic) [Example 151, (1RS,2RS)-2-(3,5-Bis-trifluoromethyl-phenyl)-N-[4-(2-chloro-phenyl)-6-(2-hydroxy-cyclohexylamino)-pyridin-3-yl]-N-methyl-isobutyramide], the Ki in assay [1] (setting [2]) is 27.5 nM; on human NK1 receptor it was 1.15 nM. The like results for `Cc1cc(F)ccc1-c1cc(N2CCC(S(C)(=O)=O)C2)ncc1N(C)C(=O)C(C)(C)c1cc(C(F)(F)F)cc(C(F)(F)F)c1` (racemic) [Example 170, (RS)-2-(3,5-Bis-trifluoromethyl-phenyl)-N-[4-(4-fluoro-2-methyl-phenyl)-6-(3-methanesulfonyl-pyrrolidin-1-yl)-pyridin-3-yl]-N-methyl-isobutyramide] were, in that order, 9.12 nM and 1.95 nM. The matching figures for `CN(C(=O)C(C)(C)c1cc(C(F)(F)F)cc(C(F)(F)F)c1)c1cnc(N2CCC(CO)C2)cc1-c1ccccc1Cl` (racemic) [Example 171, (RS)-2-(3,5-Bis-trifluoromethyl-phenyl)-N-[4-(2-chloro-phenyl)-6-(3-hydroxymethyl-pyrrolidin-1-yl)-pyridin-3-yl]-N-methyl-isobutyramide]: 24.5 nM and 3.72 nM. The matching figures for `Cc1ccccc1-c1cc(N2CCOC(CO)C2)ncc1N(C)C(=O)C(C)(C)c1cc(C(F)(F)F)cc(C(F)(F)F)c1` (racemic) [Example 176, (RS)-2-(3,5-Bis-trifluoromethyl-phenyl)-N-[6-(2-hydroxymethyl-morpholin-4-yl)-4-o-tolyl-pyridin-3-yl]-N-methyl-isobutyramide]: 26.3 nM and 2.09 nM.

For `Cc1cc(F)ccc1-c1cc(N2CCS(=O)(=O)CC2CO)ncc1N(C)C(=O)C(C)(C)c1cc(C(F)(F)F)cc(C(F)(F)F)c1` (racemic) [Example 177, (RS)-2-(3,5-Bis-trifluoromethyl-phenyl)-N-[4-(4-fluoro-2-methyl-phenyl)-6-(3-hydroxymethyl-1,1-dioxo-1λ^6-thiomorpholin-4-yl)-pyridin-3-yl]-N-methyl-isobutyramide], the results for the Ki (in assay [1] (setting [2]); on human NK1 receptor) were 2.63 nM and 1.2 nM, respectively.

`Cc1ccccc1-c1cc(N2CCS(=O)(=O)CC2CO)ncc1N(C)C(=O)C(C)(C)c1cc(C(F)(F)F)cc(C(F)(F)F)c1` (racemic) [Example 178, (RS)-2-(3,5-Bis-trifluoromethyl-phenyl)-N-[6-(3-hydroxymethyl-1,1-dioxo-1λ^6-thiomorpholin-4-yl)-4-o-tolyl-pyridin-3-yl]-N-methyl-isobutyramide]: the Ki is 3.47 nM in assay [1] (setting [2]) and 0.933 nM at human NK1 receptor. The matching figures for `Cc1ccccc1-c1cc(N2CC[C@H](O)[C@H](O)C2)ncc1N(C)C(=O)C(C)(C)c1cc(C(F)(F)F)cc(C(F)(F)F)c1` (racemic) [Example 185, (3RS,4SR)-2-(3,5-Bis-trifluoromethyl-phenyl)-N-(3,4-dihydroxy-4′-o-tolyl-3,4,5,6-tetrahydro-2H-[1,2′]bipyridinyl-5′-yl)-N-methyl-isobutyramide]: 32.4 nM and 1.55 nM.

For `COc1cc(OC)cc(C(C)(C)C(=O)N(C)c2cnc(N3C[C@H](O)C[C@H]3CO)cc2-c2ccccc2C)c1` [Example 400, (2S,4R)-2-(3,5-Dimethoxy-phenyl)-N-[6-(4-hydroxy-2-hydroxymethyl-pyrrolidin-1-yl)-4-o-tolyl-pyridin-3-yl]-N-methyl-isobutyramide], the Ki in assay [1] (setting [3]) was 6.03 nM. Still for that read-out and setting: with `COc1cc(OC)cc(C(C)(C)C(=O)N(C)c2cnc(NCCO)cc2-c2ccc(F)cc2C)c1` [Example 401, 2-(3,5-Dimethoxy-phenyl)-N-[4-(4-fluoro-2-methyl-phenyl)-6-(2-hydroxy-ethylamino)-pyridin-3-yl]-N-methyl-isobutyramide] the figure was 20 nM. With `COc1cc(OC)cc(C(C)(C)C(=O)N(C)c2cnc(N3CCC[C@H]3CO)cc2-c2ccc(F)cc2C)c1` [Example 402, (S)-2-(3,5-Dimethoxy-phenyl)-N-[4-(4-fluoro-2-methyl-phenyl)-6-(2-hydroxymethyl-pyrrolidin-1-yl)-pyridin-3-yl]-N-methyl-isobutyramide], in assay [1] (setting [3]), the Ki is 4.68 nM. On the same count and under the same terms, with `COc1cc(OC)cc(C(C)(C)C(=O)N(C)c2cnc(N3C[C@H](O)C[C@H]3CO)cc2-c2ccc(F)cc2C)c1` [Example 403, (2S,4R)-2-(3,5-Dimethoxy-phenyl)-N-[4-(4-fluoro-2-methyl-phenyl)-6-(4-hydroxy-2-hydroxymethyl-pyrrolidin-1-yl)-pyridin-3-yl]-N-methyl-isobutyramide] the figure was 5.75 nM.
